Values after ≈ are worked out from the molar mass of the structure shown.
Experiments:
[1] = target: Hematopoietic prostaglandin D synthase (Homo sapiens, UniProt O60760); test: Inhibition of human H-PGDS expressed in Escherichia coli BL21 DE3 cells assessed as reduction in PGD2 production using PGH2 as substrate by RapidFire High Throughput Mass spectrometry
[2] = target: T1, Hematopoietic prostaglandin D synthase (Rattus norvegicus, UniProt O35543); test: Inhibition of H-PGDS in rat RBL cells assessed as reduction in A23187-induced PGD2 production pretreated for 30 mins followed by A23187 addition for 30 mins by RapidFire Mass spectrometry; format: cell-based
T1 sequence (O35543 whole entry): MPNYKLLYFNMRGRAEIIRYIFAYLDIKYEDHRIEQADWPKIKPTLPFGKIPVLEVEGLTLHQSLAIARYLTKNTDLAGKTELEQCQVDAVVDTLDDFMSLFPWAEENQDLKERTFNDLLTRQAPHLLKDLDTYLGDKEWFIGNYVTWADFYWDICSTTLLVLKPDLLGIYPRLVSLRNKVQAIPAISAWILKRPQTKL

[3] = Dissociation constant, pKa of the compound by UV spectroscopy or potentiometric analysis; format: physicochemical
Albumin = Albumin (Homo sapiens, UniProt P02768); test: Protein binding in human serum albumin by HPLC analysis; format: ADME, cell-free; conditions: read-out: PB (converted)
Chain of Albumin (P02768 whole entry): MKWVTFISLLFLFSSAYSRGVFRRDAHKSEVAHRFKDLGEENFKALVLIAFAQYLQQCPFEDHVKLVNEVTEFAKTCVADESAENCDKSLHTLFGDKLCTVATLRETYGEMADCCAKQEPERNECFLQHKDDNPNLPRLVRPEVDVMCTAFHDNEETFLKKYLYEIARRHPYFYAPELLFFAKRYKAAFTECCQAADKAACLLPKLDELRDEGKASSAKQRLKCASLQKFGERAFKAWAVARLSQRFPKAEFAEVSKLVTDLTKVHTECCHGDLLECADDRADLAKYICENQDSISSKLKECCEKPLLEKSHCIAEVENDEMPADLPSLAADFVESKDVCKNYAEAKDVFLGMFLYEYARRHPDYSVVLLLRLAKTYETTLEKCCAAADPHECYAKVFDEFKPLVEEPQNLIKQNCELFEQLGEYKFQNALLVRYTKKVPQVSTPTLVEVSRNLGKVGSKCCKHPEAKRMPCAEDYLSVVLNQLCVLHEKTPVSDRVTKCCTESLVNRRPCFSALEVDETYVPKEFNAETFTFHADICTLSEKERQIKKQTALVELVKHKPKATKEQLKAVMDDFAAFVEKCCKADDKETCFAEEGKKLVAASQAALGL

[4] = Solubility of the compound in FaSSIF at pH 6.5 measured after 4 hrs by HPLC-UV analysis; format: ADME
[5] = Dose normalized AUC in mouse at 3 mg/kg, po; format: ADME, organism-based; set-up: unit not given here; conditions: in vivo
[6] = Half life in mouse liver microsomes pretreated for 5 mins followed by incubation with NADP for 30 secs and measured upto 45 mins by LC-MS/MS analysis; format: ADME, Microsome; conditions: time 3030 sec
[7] = Apparent permeability, Papp of the compound at pH 7.4 incubated for 3 hrs by AMP based liquid chromatography; format: ADME; conditions: not told

Chain of Hematopoietic prostaglandin D synthase (Homo sapiens, UniProt O60760) (O60760 whole entry): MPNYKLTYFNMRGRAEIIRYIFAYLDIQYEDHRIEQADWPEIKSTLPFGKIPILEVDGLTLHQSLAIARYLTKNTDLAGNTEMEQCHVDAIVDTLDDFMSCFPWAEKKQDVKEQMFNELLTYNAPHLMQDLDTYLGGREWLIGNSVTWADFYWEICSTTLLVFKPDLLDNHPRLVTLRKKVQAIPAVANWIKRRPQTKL

| IC50 [1] [nM] | EC50 [2] [nM] | pKa [3] | fraction unbound (Albumin) | solubility at 4 h [4] [µg/mL] | AUC/dose [5] | half-life [6] [h] | Papp at 3 h [7] [×10⁻⁶ cm/s] | EC50 ([2]; rbl) [nM] | SMILES |
| --- | --- | --- | --- | --- | --- | --- | --- | --- | --- |
| 2.4 | 3.9 | – | – | – | – | – | – | – | CC(C)(O)[C@H]1CC[C@H](NC(=O)c2cnc3nc(N4CCC4)c(Cl)cc3c2)CC1 |
| 140 | 2000 | < 2 | – | – | – | – | – | – | COc1ncc2cc(C(=O)N[C@H]3CC[C@H](C(C)(C)O)CC3)cnc2n1 |
| 3.1 | < 2.5 | – | – | – | – | – | – | – | C[C@H]1CCN1c1nc2ncc(C(=O)N[C@H]3C[C@H](C(C)(C)O)C3)cc2cc1Cl |
| 10 | 120 | – | – | – | – | – | – | – | CC(C)(O)[C@H]1CC[C@H](NC(=O)c2cnc3nc(C4CCC4)ccc3c2)CC1 |
| 4.7 | 5.2 | – | – | – | – | – | – | – | CC(C)(O)[C@H]1CC[C@H](NC(=O)c2cnc3nc(C4CC4)c(Cl)cc3c2)CC1 |
| 3.9 | 32 | – | 0.14 | 35 (≈ 95.8 µM) | 477 | > 3 | 4.5 | – | CC(C)(O)[C@H]1CC2(C[C@H](NC(=O)c3cnc4nc(C5CC5)ccc4c3)C2)C1 (some centres not stated) |
| 6.6 | 22 | – | – | – | – | – | – | – | COc1nc2ncc(C(=O)N[C@H]3CC[C@H](C(C)(C)O)CC3)cc2cc1Cl |
| 3.8 | 3.9 | – | – | – | – | – | – | – | C[C@H]1CCN1c1nc2ncc(C(=O)N[C@H]3CC[C@H](C(C)(C)O)CC3)cc2cc1Cl |
| 65 | 280 | – | 0.24 | 280 (≈ 860 µM) | 45.3 | > 3 | 13 | – | CC(C)(O)[C@H]1C[C@H](NC(=O)c2cnc3cc(C4CC4)ncc3c2)C1 |
| 36 | 280 | – | 0.26 | 100 (≈ 307 µM) | 77.5 | > 3 | – | – | CC(C)(O)[C@H]1C[C@H](NC(=O)c2cnc3nc(C4CC4)ccc3c2)C1 |
| 4.9 | – | – | 0.14 | 34 (≈ 93 µM) | 441 | > 3 | 5.4 | 29 | CC(C)(O)C1CC2(CC(NC(=O)c3cnc4nc(C5CC5)ccc4c3)C2)C1 (configuration not stated) |
| 6.4 | 190 | – | 0.14 | 700 (≈ 2110 µM) | 362 | > 3 | 15 | – | C[C@]1(O)C[C@H](NC(=O)c2cnc3nc(C4CC4)c(Cl)cc3c2)C1 |
| 7.1 | 54 | – | 0.13 | 31 (≈ 93.4 µM) | 152 | > 3 | 22 | – | C[C@]1(O)C[C@@H](NC(=O)c2cnc3nc(C4CC4)c(Cl)cc3c2)C1 |
| 3.9 | 11 | – | 0.12 | 46 (≈ 128 µM) | 45.2 | > 3 | 28 | – | CC(C)(O)[C@H]1C[C@H](NC(=O)c2cnc3nc(C4CC4)c(Cl)cc3c2)C1 |
| 6.4 | 170 | – | 0.36 | – | 204 | > 3 | 2.2 | – | CC(C)(O)[C@H]1CC[C@H](NC(=O)c2cnc3nc(C4CC4)ncc3c2)CC1 |
| 5 | 4.7 | – | – | – | – | – | – | – | C[C@H]1CCN1c1nc2ncc(C(=O)N[C@H]3C[C@](C)(O)C3)cc2cc1Cl |
| 4.6 | 14 | – | 0.19 | 120 (≈ 363 µM) | 252 | > 3 | 3 | – | O=C(N[C@H]1CCNC1=O)c1cnc2nc(C3CC3)c(Cl)cc2c1 |

The next lines start with the compound.

| SMILES | IC50 [1] [nM] | EC50 [2] [nM] | pKa [3] | fraction unbound (Albumin) | solubility at 4 h [4] [µg/mL] | AUC/dose [5] | half-life [6] [h] | Papp at 3 h [7] [×10⁻⁶ cm/s] | EC50 ([2]; rbl) [nM] |
| --- | --- | --- | --- | --- | --- | --- | --- | --- | --- |
| C[C@@H]1CCN1c1cc2ncc(C(=O)N[C@H]3CC[C@H](C(C)(C)O)CC3)cc2cn1 | 160 | 450 | – | – | – | – | – | – | – |
| C[C@]1(O)C[C@@H](NC(=O)c2cnc3nc(N4CCC4)ccc3c2)C1 | 140 | 17000 | – | – | – | – | – | – | – |
| C[C@H]1CCN1c1cc2ncc(C(=O)N[C@H]3CC[C@H](C(C)(C)O)CC3)cc2cn1 | 4.8 | 50 | – | – | – | – | – | – | – |
| C[C@H]1CCN1c1nc2ncc(C(=O)N[C@H]3C[C@@](C)(O)C3)cc2cc1Cl | 5 | < 2.5 | – | – | – | – | – | – | – |
| C[C@]1(O)C[C@@H](NC(=O)c2cnc3nc(C4CC4)ccc3c2)C1 | 160 | 1300 | – | – | – | – | – | – | – |
| CC(C)(O)[C@]12C[C@@](NC(=O)c3cnc4cc(C5CC5)ncc4c3)(C1)C2 | 38 | 210 | – | – | – | – | – | – | – |
| COc1ccc2nc(C(=O)N[C@H]3CC[C@H](C(C)(C)O)CC3)cnc2c1 | 490 | 3200 | < 2 | – | – | – | – | – | – |
| C[C@@H]1CCN1c1ccc2cc(C(=O)N[C@H]3CC[C@H](C(C)(C)O)CC3)cnc2n1 | 310 | 3000 | – | – | – | – | – | – | – |
| COc1ccc2cc(C(=O)N[C@H]3CC[C@H](C(C)(C)O)CC3)nnc2c1 | 7900 | > 50000 | < 2 | – | – | – | – | – | – |
| COc1ccc2cc(C(=O)N[C@H]3CC[C@H](C(C)(C)O)CC3)cnc2c1 | – | 100 | 3.59 | – | – | – | – | – | – |
| CC(C)(O)[C@H]1CC[C@H](NC(=O)c2cnc3nc(N4CCC4)ncc3c2)CC1 | 12 | 340 | – | 0.46 | 210 (≈ 568 µM) | 23.4 | 2.43 | < 1 | – |
| COc1ccc2cc(C(=O)N[C@H]3CC[C@H](C(C)(C)O)CC3)ccc2c1 | 1300 | > 50000 | – | – | – | – | – | – | – |
| CC(C)(O)[C@H]1CC[C@H](NC(=O)c2cnc3nc(NCC(F)F)ccc3c2)CC1 | 150 | 12000 | – | – | – | – | – | – | – |
| CC(C)(O)[C@H]1CC[C@H](NC(=O)c2cnc3nc(NCC(F)(F)F)ccc3c2)CC1 | 690 | 9600 | – | – | – | – | – | – | – |
| CC(C)(O)[C@H]1CC[C@H](NC(=O)c2cnc3cnccc3c2)CC1 | 7700 | 39000 | 2.74 | – | – | – | – | – | – |
| O=C(N[C@H]1CCNC1=O)c1cnc2nc(C3CC3)ccc2c1 | 44 | 640 | – | – | – | – | – | – | – |
| CC(C)(O)[C@H]1CC[C@H](NC(=O)c2cnc3nc(OCC(F)(F)F)ccc3c2)CC1 | 350 | 1100 | – | – | – | – | – | – | – |
| O=C(N[C@H]1CCNC1=O)c1cnc2cc(C3CC3)ncc2c1 | 110 | 260 | – | 0.57 | 430 (≈ 1450 µM) | 262 | 2.45 | 3 | – |

| SMILES | IC50 [1] [nM] | EC50 [2] [nM] | pKa [3] | fraction unbound (Albumin) | solubility at 4 h [4] [µg/mL] | AUC/dose [5] | half-life [6] [h] | Papp at 3 h [7] [×10⁻⁶ cm/s] | EC50 ([2]; rbl) [nM] |
| --- | --- | --- | --- | --- | --- | --- | --- | --- | --- |
| C[C@]1(O)C[C@@H](NC(=O)c2cnc3cc(C4CC4)ncc3c2)C1 | 290 | 910 | – | – | – | – | – | – | – |
| C[C@H]1CCN1c1cc2ncc(C(=O)N[C@H]3CCNC3=O)cc2cn1 | 37 | 260 | – | 0.44 | 630 (≈ 1940 µM) | 715 | > 3 | 1.4 | – |
| O=C(N[C@H]1CC[C@H](N2CC(F)(F)C2)CC1)c1cnc2cc(C3CC3)ncc2c1 | 14 | 88 | – | – | – | – | – | – | – |
| COc1ccc2c(c1)N=CN(C(=O)N[C@H]1CC[C@H](C(C)(C)O)CC1)C2 | 890 | 4300 | 4.31 | – | – | – | – | – | – |
| CC(N[C@H]1CC[C@H](NC(=O)c2cnc3nc(C4CC4)ccc3c2)CC1)C(F)F (mixture of isomers) | 11 | 28 | – | 0.18 | > 1000 | 681 | > 3 | 17 | – |
| O=C(N[C@H]1CC[C@H](N2CC(F)(F)C2)CC1)c1cnc2nc(C3CC3)ccc2c1 | 14 | 50 | – | – | – | – | – | – | – |
| CC(C)(O)[C@H]1CC[C@H](NC(=O)c2cnc3nc(N4CC(F)C4)ccc3c2)CC1 | 13 | 1000 | – | – | – | – | – | – | – |
| O=C(N[C@H]1CCNC1=O)c1cnc2nc(N3CCC3)ccc2c1 | 71 | 6000 | – | – | – | – | – | – | – |
| O=C(N[C@H]1CC[C@H](N2CC(F)C2)CC1)c1cnc2cc(C3CC3)ncc2c1 | 35 | 280 | – | – | > 1000 | 358 | > 3 | 27 | – |
| C[C@H]1CCN1c1nc2ncc(C(=O)N[C@H]3CCNC3=O)cc2cc1Cl | 5.1 | 3.8 | – | 0.19 | > 1000 | 86.2 | > 3 | < 0.3 | – |
| CC(C)(O)[C@H]1CC[C@H](NC(=O)c2cnc3ccccc3c2)CC1 | 1800 | 30000 | 3.02 | – | – | – | – | – | – |
| C[C@H]1CCN1c1nc2ncc(C(=O)N[C@H]3CC[C@](C)(O)CC3)cc2cc1Cl | 4.6 | 3.7 | – | 0.13 | 740 (≈ 1900 µM) | 132 | > 3 | 11 | – |
| CC(C)c1ccc2cc(C(=O)N[C@H]3CC[C@H](C(C)(C)O)CC3)cnc2n1 | 8.5 | 64 | – | – | – | – | – | – | – |
| CC(C)(O)[C@]12C[C@@](NC(=O)c3cnc4nc(C5CC5)ccc4c3)(C1)C2 | 17 | 230 | – | 0.31 | 400 (≈ 1190 µM) | 285 | > 3 | 3.4 | – |
| C[C@]1(O)C[C@H](NC(=O)c2cnc3nc(C4CC4)ccc3c2)C1 | 300 | 7400 | – | – | – | – | – | – | – |
| COc1cnc2cc(C(=O)N[C@H]3CC[C@H](C(C)(C)O)CC3)cnc2c1 | 180 | 740 | < 2 | – | – | – | – | – | – |
| O=C(N[C@H]1CC[C@H](N[C@H](CO)C(F)(F)F)CC1)c1cnc2cc(C3CC3)ncc2c1 | 31 | 310 | – | – | 100 (≈ 237 µM) | 693 | > 3 | 18 | – |

— ChEMBL document CHEMBL5260850, “The exploration of aza-quinolines as hematopoietic prostaglandin D synthase (H-PGDS) inhibitors with low brain exposure” (Bioorg Med Chem, 2020)
